The values below come from US11213590B2, “SSTR-targeted conjugates and particles and formulations thereof” (priority 2016, dated 2022).

The test system of one data set is NCI-H69. Briefly: cells. The format is cell-based, human. Conditions: Homo sapiens, read-out: Proliferation Inhibition IC50 of DM1. As for the experimental part:
(§1) The purpose of this study was to determine the receptor-dependent inhibition of proliferation in vitro by the somatostatin targeting conjugate Conjugate 57 and determine the sensitivity to DM1 in the human SSTR2 expressing cancer cell lines: NCI-H69, NCI-H82, NCI-H727 and HCC-33. Cells were incubated with Conjugate 57 for 6 hours, in the presence or absence of an excess of octreotide, a somatostatin analogue. A three-fold serial dilution of Conjugate 57 was used for a total of ten concentration points. After treatment, cells were washed, incubated for an additional period of time, either 72 or 96 hours and proliferation was measured using the CellTiter-Glo® Luminescent Cell Viability Assay. The IC50 of Conjugate 57 was used to determine the inhibiting activity in proliferation assays. To determine DM1 sensitivity a similar method to the Conjugate 57 assay was employed with the additional incubation time points of 30 minutes, 1, 2, and 4 hours and the exclusion of the pre-treatment with octreotide. DM1 effect from the most to least sensitive cell line was determined to be: NCI-H69>HCC-33>NCI-H82>NCI-H727 (Table 5B). […] The addition of excess octreotide (100 μM) competes with Conjugate 57 for binding to the SSTR2 receptor. […] In the NCI-H69 experiments, pre-incubation with an excess of octreotide modestly diminished the activity of Conjugate 57 by 1.6 and 2.4 fold, depending on the assay conditions. In the HCC-33 cell line, activity of Conjugate 57 was 3.2 (±1.4) times higher when dosed alone, compared to when the cells were pre-incubated with octreotide. The small but measureable changes in Conjugate 57 activity in the presence of excess octreotide seen in the NCI-H69 and HCC-33 cell lines supports the receptor dependence of the Conjugate 57 antiproliferative effect seen in vitro. In summary, although all the cell lines tested in these experiments express the SSTR2 protein, they have different levels of sensitivity to the Conjugate 57 conjugate of which the DM1 sensitivity may be a contributing factor.

The test system of the next data set is NCI-H82. Put plainly: cells. Type of data set: cell-based, human. Conditions: Homo sapiens, read-out: Proliferation Inhibition IC50 of DM1. On the procedure: as §1
For a further data set, the system named is NCI-H727. Put plainly: cells. Type of data set: cell-based, human. To be noted: Homo sapiens, read-out: Proliferation Inhibition IC50 of DM1. As for the experimental part:
as §1

A further data set deals with HCC-33. Briefly: Inhibition of proliferation, CellTiter-Glo, HCC-33. To be noted: Homo sapiens, HCC33, 6 h incubation, n = 3, read-out: Proliferation Inhibition IC50 of DM1. Type of data set: cell-based, human. On the procedure:
as §1

The target of a further data set is CYP3A4 (Homo sapiens, UniProt P08684). Conditions: KADCYLA package insert; to a lesser extent by CYP3A5; cited from earlier work.
Chain of CYP3A4 (P08684 whole entry): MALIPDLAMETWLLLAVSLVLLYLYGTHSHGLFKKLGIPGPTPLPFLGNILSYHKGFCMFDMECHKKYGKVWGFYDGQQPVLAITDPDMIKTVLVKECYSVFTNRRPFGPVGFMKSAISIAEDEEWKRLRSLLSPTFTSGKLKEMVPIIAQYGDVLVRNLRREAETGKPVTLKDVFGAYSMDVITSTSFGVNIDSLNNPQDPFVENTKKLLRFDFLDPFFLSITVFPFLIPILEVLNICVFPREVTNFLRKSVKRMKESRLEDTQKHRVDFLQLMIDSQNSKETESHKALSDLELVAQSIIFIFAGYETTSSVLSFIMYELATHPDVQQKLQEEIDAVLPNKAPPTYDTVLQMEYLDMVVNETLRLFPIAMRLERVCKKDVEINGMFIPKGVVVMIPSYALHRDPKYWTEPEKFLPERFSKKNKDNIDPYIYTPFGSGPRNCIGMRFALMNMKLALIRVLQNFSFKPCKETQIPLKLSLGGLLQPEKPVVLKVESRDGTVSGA
The next data set relates to NCI-H69 xenograft. Briefly: NCI-H69 lung xenograft efficacy, formulations and schedules. Conditions: cisplatin iv 5.0 mg/kg 1x/week combined with etoposide ip 8.0 mg/kg 3x/week over two weeks (SOC); Day 21. The format is in vivo, mice. On the procedure:
A further NCI-H69 study design included Conjugate 57 dosed iv at 1.0 mg/kg formulated in propylene glycol (PG), 1.0 mg/kg formulated in Solutol HS15, 0.5 mg/kg formulated in Solutol HS15 dosed twice per week, and 0.33 mg/kg formulated in Solutol HS15 dosed three times per week. A comparator group was dosed with SOC cisplatin dosed iv at 5.0 mg/kg once per week/etoposide dosed ip at 8.0 mg/kg three times per week over two weeks. A negative control vehicle was dosed with the Solutol HS 15 vehicle. All groups contained 10 animals.

For data set [1] the following is noted: cited from earlier work.

The structures appear in SMILES notation. pIC50: −log10 of the molar value. Like-named read-outs stand apart in the source and are kept apart here.

For `COc1cc2cc(c1Cl)N(C)C(=O)C[C@H](OC(=O)[C@H](C)N(C)C(=O)CCS)C1(C)O[C@H]1[C@H](C)[C@@H]1C[C@@](O)(NC(=O)O1)[C@H](OC)/C=C/C=C(\C)C2` (stereo partly drawn) [DM1, mertansine (DM1), reference compound], the pIC50 was 7.82 in the data set on NCI-H69 (0.5 h, 30 min incubation); 8.10 in the data set with NCI-H69 (1 h incubation); 7.85 with NCI-H69 (2 h incubation); 7.96 with NCI-H69 (4 h incubation); 8.22 with NCI-H69 (6 h incubation); 6.77 with NCI-H82 (0.5 h, 30 min incubation). The pIC50 is 6.63 in the data set with NCI-H82 (1 h incubation); 6.74 with NCI-H82 (2 h incubation); 6.73 in the data set with NCI-H82 (4 h incubation); 7.25 in the data set on NCI-H82 (6 h incubation); 5.94 in the data set on NCI-H727 (0.5 h, 30 min incubation); 6.18 in the data set on NCI-H727 (1 h incubation). The pIC50 in the data set with NCI-H727 (2 h incubation) is 6.32; with NCI-H727 (4 h incubation), 6.42; in the data set on NCI-H727 (6 h incubation), 6.27; with HCC-33 it was 7.47. At CYP3A4, the “metabolizing enzymes in vitro” value is “metabolized in vitro mainly by CYP3A4”.

For the molecule `N.N.[Cl][Pt][Cl]` [Cisplatin, reference compound], in the data set with NCI-H69 xenograft, the “MTV (Mean Tumor Volume)” value is reported as 229 mm3 and the “TGI (Tumor Growth Inhibition)” value came out at 84%.

In the case of `C[C@@H](O)[C@@H]1NC(=O)[C@H](CCCCN)NC(=O)[C@@H](Cc2c[nH]c3ccccc23)NC(=O)[C@H](Cc2ccccc2)NC(=O)[C@@H](NC(=O)[C@@H](Cc2ccccc2)NC(=O)CN(CCN(CCN(CC(=O)O)CC(=O)O)CC(=O)O)CC(=O)O)CSSC[C@@H](C(=O)N[C@H](CO)[C@@H](C)O)NC1=O` [^111In pentetreotide, metal not drawn], the “hormonal effect relative to octreotide” value in data set [1] (according to the manufacturer) is on record as 1/10. Also, in data set [1] (human, in vivo), the “adverse reactions, frequency” value was under 1%.
